Laboratory results reported in patent publication US20250304623A1, “PEPTIDES FOR INTRACELLULAR DELIVERY” (UNIVERSIDADE DE SANTIAGO DE COMPOSTELA, priority 2022, published 2025).
*: point of attachment. NHNH2 = NN*

How the values were obtained:
Type in all cases: cell-based
Hek293 cells [1] = assay: RLuc pDNA delivery, robotic library screening, Hek293
Hek293 cells [2] = assay: EGFP mRNA delivery, robotic library screening, Hek293
Method: Cells were seeded in a 96 well plate the day before the experiment at a concentration of 50,000 cell/mL (100 μL/w) in DMEM+10% FBS+1% Gln-Abt. For robotic library screening, the delivery of EGFP-mRNA (from TriLink, fully substituted with 5-methoxyuridine, capped and polyadenylated; TriLink, CleanCap® EGFP mRNA (5moU), ref. L-7201) in six different cell lines was performed. Amphiphilic molecule stock solutions were prepared in DMSO as described above and diluted in DMEM to afford a range of concentrations. The solutions of EGFP-mRNA/amphiphilic molecule complexes were freshly prepared prior to the transfection experiments. 35 μL of the corresponding amphiphile were added to 10 μL of a solution of EGFP-mRNA at 10 ng/μL in DMEM. The mixture was shaken for 30 min at room temperature before the addition to the cells. The cell medium was aspirated, and cells were washed with PBS twice. Cells were covered with 39 μL of DMEM and 11 μL of the complex's solution were added to the cells and incubated for 4 h (final concentration of peptide=2.5, 5 and 10 μM; final concentration of EGFP-mRNA=25 ng/well). After the incubation, the medium was replaced by 100 μL of fresh DMEM supplemented with 10% FBS. The total EGFP fluorescence was quantified after 72 h in a well plate reader. Amphiphile transfection efficiency was compared and normalized to Lipofectamine® MessengerMax efficiency (value of 1 in Tables 1-5 and 7; double underlined numbers). All experiments were done in triplicate.
Tables 1-7: RLuc (pDNA) or EGFP (mRNA) expression levels were normalized to Lipofectamine reagents (value=1) and expressed as fold-times signal increase. In the case of siRNA, the siRNA treated cells fluorescence was compared with siMOCK control fluorescence, while Cas9-RNP mediated knockout was measured against the fluorescence of untreated cells. In both siRNA and Cas9-RNP, values are expressed as % fluorescence reduction. Amphiphile concentration was 5 μM in all cases. All experiments were performed in triplicate.
Tables 14-19 show the mean (triplicates) fluorescence intensity measured after the transfection of EGFP mRNA by different amphiphiles at different concentrations in a variety of cell lines. Background fluorescence values, accounted by untreated control cells, were subtracted for processing.

[3] = tested on: HCT116 cells expressing EGFP; assay: Cas9-RNP delivery against EGFP (gene editing, plate reader), HCT116
Method: To generate an EGFP expressing HeLa cell line, HeLa cells were transfected with EGFP pDNA (pEGFP-C1, Clontech) and stable transfectants were selected with 400 μg/mL of G-418 (Millipore). Green clones were selected by epifluorescence microscopy and tested for EGFP expression stability through several passages. […] All other EGFP-expressing cell lines were obtained in a similar way from parent non-EGFP-expressing cell lines.
Cells expressing EGFP were seeded in a 96 well plate the day before the experiment at a concentration of 50,000 cell/mL (100 μL/w) in DMEM+10% FBS+1% Gln-Abt. For robotic library screening, the delivery of Cas9-RNP against EGFP (RNP designed to knock-out the gene encoding for the enhanced green fluorescent protein (EGFP)) was performed. For RNP assembly, 9.2 μL of crRNA and 9.2 μL of tracrRNA were mixed in 211.6 μL of Nuclease-Free Duplex Buffer (IDT), incubated for 5 min at 95° C. and slowly cooled at rt (see I. Lostalé-Seijo, et al. Peptide/Cas9 nanostructures for ribonucleoprotein cell membrane transport and gene edition, Chem. Sci., 2017). Cas9 protein was dissolved in DMEM at a final concentration of 4 μM and equal volumes of the RNA complex and Cas9 were mixed and incubated for 5 min at rt. 75 μL of the corresponding amphiphile concentrations were added to 5 μL of RNP at 2 μM. The mixture was shaken for 30 min at room temperature before the addition to the cells. The cell medium was aspirated, and cells were washed twice with PBS. Cells were covered with 30 μL of DMEM and 20 μL of the RNP/amphiphile complexes were added to the cells (final peptide concentrations=2.5, 5 and 10 μM; final Cas9-RNP concentration=50 nM) and incubated for 4 h. After the incubation, the medium was replaced by 100 μL of fresh DMEM supplemented with 10% FBS. The total EGFP fluorescence was quantified after 72 h in a plate reader (FIG. 2, Table 1 (right) and Table 6). All experiments were done in triplicate. […]
Tables 26-31 show the mean (triplicates) percentage of gene editing, accounted by GFP fluorescence intensity decrease (% of reduction), measured after the transfection of Cas9-RNP by different amphiphiles at different concentrations in a variety of cell lines. Background values, accounted by untreated control cells, were subtracted for processing.

**Q.** Which “mean luminescent intensity (RLuc pDNA)” value (Hek293 cells [1]; Dodecanal, 15 μM) does the source give for “Ac-RRHK*RLK*RRLK*RL-NH2 (Ac-RRHK(NHNH2)RLK(NHNH2)RRLK(NHNH2)RL-NH2; not fully specified; printed as Ac-RRHK*RLK*RRLK*RL-NH2; also: K*4,K*7,K*11: native or modified lysine (ε-amide to a linker)) [13(Leu-His)]” here?
**A.** 62749 RLU

**Q.** And the “mean luminescent intensity (RLuc pDNA)” value (Hek293 cells [1]; Palmitoleyl, 5 μM)?
**A.** 240629 RLU

**Q.** What about the “mean luminescent intensity (RLuc pDNA)” value (Hek293 cells [1]; Palmitoleyl, 10 μM) of the same substance?
**A.** 77558 RLU

**Q.** And the “mean luminescent intensity (RLuc pDNA)” value (Hek293 cells [1]; Palmitoleyl, 15 μM)?
**A.** 7639 RLU

**Q.** And the “mean luminescent intensity (RLuc pDNA)” value (Hek293 cells [1]; Petroselinyl, 5 μM)?
**A.** 213228 RLU

**Q.** And the “mean luminescent intensity (RLuc pDNA)” value (Hek293 cells [1]; Petroselinyl, 10 μM)?
**A.** 77709 RLU

**Q.** And the “mean luminescent intensity (RLuc pDNA)” value (Hek293 cells [1]; Petroselinyl, 15 μM)?
**A.** 6882 RLU

**Q.** And the “mean fluorescence intensity (EGFP mRNA)” value (Hek293 cells [2]; Palmitoleyl, 2.5 μM)?
**A.** 4730

**Q.** What about the “mean fluorescence intensity (EGFP mRNA)” value (Hek293 cells [2]; Palmitoleyl, 5 μM) of the same substance?
**A.** 1141

**Q.** And the “mean fluorescence intensity (EGFP mRNA)” value (Hek293 cells [2]; Petroselinyl, 2.5 μM)?
**A.** 629

**Q.** What about the “mean fluorescence intensity (EGFP mRNA)” value (Hek293 cells [2]; Petroselinyl, 5 μM) of the same substance?
**A.** −150

**Q.** And the “mean fluorescence intensity (EGFP mRNA)” value (Hek293 cells [2]; Petroselinyl, 10 μM)?
**A.** −168

**Q.** And the “percentage of gene editing, GFP fluorescence intensity decrease (% of reduction)” value ([3]; Dodecanal, 5 μM)?
**A.** −28%

**Q.** What about the “percentage of gene editing, GFP fluorescence intensity decrease (% of reduction)” value ([3]; Dodecanal, 10 μM) of the same substance?
**A.** −5%

**Q.** What about the “percentage of gene editing, GFP fluorescence intensity decrease (% of reduction)” value ([3]; Myristoleyl, 5 μM) of the same substance?
**A.** 22%

**Q.** And the “percentage of gene editing, GFP fluorescence intensity decrease (% of reduction)” value ([3]; Myristoleyl, 10 μM)?
**A.** −105%

**Q.** What about the “percentage of gene editing, GFP fluorescence intensity decrease (% of reduction)” value ([3]; Oleyl, 5 μM) of the same substance?
**A.** 7%

**Q.** And the “percentage of gene editing, GFP fluorescence intensity decrease (% of reduction)” value ([3]; Palmitoleyl, 5 μM)?
**A.** 4%

**Q.** What about the “percentage of gene editing, GFP fluorescence intensity decrease (% of reduction)” value ([3]; Palmitoleyl, 15 μM) of the same substance?
**A.** 0%

**Q.** What about the “percentage of gene editing, GFP fluorescence intensity decrease (% of reduction)” value ([3]; Petroselinyl, 5 μM) of the same substance?
**A.** 18%

**Q.** For Ac-RRLK*RLK*RRLK*RL-NH2 [Peptide 13.3], which “mean luminescent intensity (RLuc pDNA)” value (Hek293 cells [1]; Dodecanal, 5 μM) is on record?
**A.** 295675 RLU

**Q.** And the “mean luminescent intensity (RLuc pDNA)” value (Hek293 cells [1]; Myristoleyl, 5 μM)?
**A.** 368875 RLU

**Q.** What about the “mean fluorescence intensity (EGFP mRNA)” value (Hek293 cells [2]; Dodecanal, 10 μM) of the same substance?
**A.** 695

**Q.** And the “mean fluorescence intensity (EGFP mRNA)” value (Hek293 cells [2]; Myristoleyl, 2.5 μM)?
**A.** 1316

**Q.** And the “mean fluorescence intensity (EGFP mRNA)” value (Hek293 cells [2]; Myristoleyl, 5 μM)?
**A.** 1229

**Q.** What about the “mean fluorescence intensity (EGFP mRNA)” value (Hek293 cells [2]; Myristoleyl, 10 μM) of the same substance?
**A.** 889

**Q.** What about the “mean fluorescence intensity (EGFP mRNA)” value (Hek293 cells [2]; Oleyl, 2.5 μM) of the same substance?
**A.** 1384

**Q.** And the “mean fluorescence intensity (EGFP mRNA)” value (Hek293 cells [2]; Oleyl, 5 μM)?
**A.** 853

**Q.** And the “mean fluorescence intensity (EGFP mRNA)” value (Hek293 cells [2]; Petroselinyl, 2.5 μM)?
**A.** 768

**Q.** What about the “mean fluorescence intensity (EGFP mRNA)” value (Hek293 cells [2]; Petroselinyl, 5 μM) of the same substance?
**A.** 1046

**Q.** What about the “mean fluorescence intensity (EGFP mRNA)” value (Hek293 cells [2]; Petroselinyl, 10 μM) of the same substance?
**A.** 964

**Q.** What about the “percentage of gene editing, GFP fluorescence intensity decrease (% of reduction)” value ([3]; Dodecanal, 5 μM) of the same substance?
**A.** 25%

**Q.** What about the “percentage of gene editing, GFP fluorescence intensity decrease (% of reduction)” value ([3]; Dodecanal, 10 μM) of the same substance?
**A.** 10%

**Q.** And the “percentage of gene editing, GFP fluorescence intensity decrease (% of reduction)” value ([3]; Dodecanal, 15 μM)?
**A.** 20%

**Q.** And the “percentage of gene editing, GFP fluorescence intensity decrease (% of reduction)” value ([3]; Myristoleyl, 15 μM)?
**A.** 10%

**Q.** What about the “percentage of gene editing, GFP fluorescence intensity decrease (% of reduction)” value ([3]; Oleyl, 5 μM) of the same substance?
**A.** −1%

**Q.** And the “percentage of gene editing, GFP fluorescence intensity decrease (% of reduction)” value ([3]; Palmitoleyl, 5 μM)?
**A.** −18%

**Q.** And the “percentage of gene editing, GFP fluorescence intensity decrease (% of reduction)” value ([3]; Palmitoleyl, 15 μM)?
**A.** 18%

**Q.** “Ac-RRLK*RLLRRLK*RL-NH2 (Ac-RRLK(NHNH2)RLLRRLK(NHNH2)RL-NH2; not fully specified; printed as Ac-RRLK*RLLRRLK*RL-NH2; also: K*4,K*11: native or modified lysine (ε-amide to a linker)) [Peptide 13.2]” was tested. Which “mean luminescent intensity (RLuc pDNA)” value (Hek293 cells [1]; Oleyl, 5 μM) did it give?
**A.** 83689 RLU

**Q.** What about the “mean luminescent intensity (RLuc pDNA)” value (Hek293 cells [1]; Oleyl, 10 μM) of the same substance?
**A.** 22447 RLU

**Q.** What about the “mean luminescent intensity (RLuc pDNA)” value (Hek293 cells [1]; Oleyl, 15 μM) of the same substance?
**A.** 7233 RLU

**Q.** And the “mean fluorescence intensity (EGFP mRNA)” value (Hek293 cells [2]; Dodecanal, 5 μM)?
**A.** 678

**Q.** What about the “mean fluorescence intensity (EGFP mRNA)” value (Hek293 cells [2]; Dodecanal, 10 μM) of the same substance?
**A.** 520

**Q.** And the “mean fluorescence intensity (EGFP mRNA)” value (Hek293 cells [2]; Oleyl, 2.5 μM)?
**A.** 955

**Q.** And the “mean fluorescence intensity (EGFP mRNA)” value (Hek293 cells [2]; Oleyl, 5 μM)?
**A.** 666

**Q.** What about the “mean fluorescence intensity (EGFP mRNA)” value (Hek293 cells [2]; Oleyl, 10 μM) of the same substance?
**A.** 791

**Q.** And the “percentage of gene editing, GFP fluorescence intensity decrease (% of reduction)” value ([3]; Oleyl, 5 μM)?
**A.** −6%
